Key:
[1] = test system: Multiple myeloma cells (RPMI 8226); assay: MTS cell viability of multiple myeloma cells treated with bortezomib with or without AS-7; format: cell-based
Description: Multiple myeloma cells (RPMI 8226) were seeded in a 96 well tissue culture plate (2000 cells per well). The compounds, 10 μM AS-7 and bortezomib at the concentrations indicated in […], were added the following day. AS-7 was prepared as described in Example I above. After 48 hours, MTS was added and absorbance was measured at 490 nm. […] Values in FIG. 2 are relative controls that contained only the vehicle in which the drugs were dissolved. Vehicle had no effect on cell viability. Error bars in FIG. 2 are not visible if they are smaller than the symbols.

Melanoma A2620 cells = assay: Crystal violet cell viability of melanoma A2620 cells, bortezomib with or without AS-7 (72 hours); format: cell-based, human; details: 10 μM AS-7
Description: Melanoma A2620 cells were seeded in a 96 well tissue culture plate (2000 cells per well). The compounds, 10 μM AS-7 and bortezomib at the concentrations indicated in FIG. 8 were added the following day. […] Values are relative to controls that contained only the vehicle in which the drugs were dissolved. Vehicle had no effect on cell viability.

159C cells = assay: MTS cell viability of breast cancer 159C cells, bortezomib with or without AS-7; format: cell-based; details: 10 μM AS-7, data not shown
Description: Breast cancer derived cell lines, T47D and 159C, were seeded in a 96 well tissue culture plate (2000 cells per well). The significance of these two lines of breast cancer derived cell lines is that the T47D cells positive for three markers used to optimize the chemotherapeutic treatment, namely HER2 receptor, estrogen receptor, and progesterone receptor. By contrast to the T47D cells, the 159C cells are negative for the three markers. The compounds, 10 μM AS-7 and a range of bortezomib (BioVision, Inc., Milpitas, Calif.) concentrations were added the following day. After 48 hours, MTS was added and absorbance was measured at 490 nm.

HeLa cells [2] = assay: Cell proliferation (growth rate, crystal violet) of HeLa cells with AS-7 by itself; format: cell-based, human
Description: Cell lines were plated at a sparse density in order to measure the rate of growth over a several day interval and obviate the effect of limited culture surface on the growth rate. The impact of AS-7 on cell proliferation became clear after two days and was dramatic after several days. While the impact of AS-7 was modest after two days, it became substantial after more than two days because the reduction in growth rate has the greatest impact on cell number after the cultures have expanded by several population doublings. […] AS-7 inhibited the rate of cell proliferation by 67% at a concentration of approximately 10 μM (FIG. 10). […] The following cell lines were used to determine the effect of AS-7 on the rate of proliferation: HeLa, melanoma […], ovarian A2780, and breast T47D. All cell line were grown in culture medium (RPMI 1640 for the breast cancer cells and Dulbecco's modified Eagle's medium for the other cell lines) containing 10% heat inactivated fetal bovine serum without antibiotics (penicillin and streptomycin).

ovarian A2780 cells = assay: Cell proliferation (growth rate, crystal violet) of ovarian A2780 cells with AS-7 by itself; format: cell-based, human; details: 10 μM AS-7, vehicle doubling time 1.0 days
Description: To examine the effect of AS-7 on the growth of several different cell lines, AS-7 at 10 μM was added to the culture medium the day after seeding the cells. The following cell lines were used to determine the effect of AS-7 on the rate of proliferation: HeLa, melanoma A2620, ovarian A2780, and breast T47D. All cell line were grown in culture medium (RPMI 1640 for the breast cancer cells and Dulbecco's modified Eagle's medium for the other cell lines) containing 10% heat inactivated fetal bovine serum without antibiotics (penicillin and streptomycin). […] The doubling times in HeLa, melanoma, ovarian and breast cancer derived cells were 0.9, 2.5, 1.0, and 1.4 days, respectively. AS-7 increased the doubling times of the HeLa, melanoma, ovarian, and breast cancer derived cells by 1.3, 1.3, 1.6, and 3.1 fold, respectively (FIGS. 11 through 14).

[3] = Solubility in aqueous solutions; format: physicochemical
Description: The ubiquitin-proteasome sensitizer compound and/or the ubiquitin-proteasome inhibitor compounds utilized in the method provided herein may also be modified by appending appropriate functionalities to enhance selective biological properties. Such modifications are known in the art and include those which increase biological penetration into a given biological system (e.g., blood, lymphatic system, central nervous system), increase oral availability, increase solubility to allow administration by injection, alter metabolism and alter rate of excretion. […] In some embodiments, AS-7 or an active derivative thereof can be dissolved at 50 mM AS-7 in dimethylsulfoxide containing 5% Cremaphor® EL detergent (Sigma Aldrich) and diluted approximately one thousand fold in a physiologic salt solution such as saline containing albumin in the range of the albumin concentration of blood. Alternatively, nanoparticles containing AS-7 or an active derivative thereof are administered to the subject. Nanoparticles can be made by mixing human albumin at a 3-4% solution in a salt solution of the desired pH and ionic strength, subjecting the solution to elevated pressure and releasing the solution via a small jet. Nanoparticles of optimal size can be purified by differential centrifugation. […]

HeLa cells [4] = assay: MTS cell viability of HeLa cells treated with anticancer drug with or without AS-7 (48 hours); format: cell-based, human; details: HeLa cells; 10 μM AS-7

In the case of `N#Cc1cccc(C(C(=O)NCC(c2ccccc2)c2ccccc2)N(CCc2c[nH]cn2)C(=O)c2ccccc2C(=O)c2ccccc2)c1` (stereo not drawn) [AS-7], the “potentiation of the cytotoxic action of bortezomib (loss of multiple myeloma cell viability)” value ([1]; 10 μM AS-7, 48 hours, MTS) is reported as “markedly potentiates”, the “increased potency of the cytotoxic action of bortezomib upon the addition of AS-7” value ([1]; FIG. 2 as printed (multiple myeloma cells)) is reported as “approximately 3.5 fold” and the “increase in potency of the cytotoxic action of bortezomib by AS-7” value (Melanoma A2620 cells) is reported as “approximately three”. For the same compound, the “potentiation of the cytotoxic action of bortezomib” value (159C cells) was “markedly potentiated”, the “rate of growth of HeLa cells” value (HeLa cells [2]; AS-7 alone) was “moderately decreased” and the “cell viability, microscopic observation of the cultures” value (HeLa cells [2]; AS-7 by itself, each of the cancer-derived cell lines tested) was “did not decrease cell viability”. For the same compound, the “inhibition of the rate of cell proliferation” value (HeLa cells [2]; HeLa cells (FIG. 10), approximately 10 μM AS-7) was 67%, the “increase of doubling time” value (HeLa cells [2]; HeLa cells, 10 μM AS-7, vehicle doubling time 0.9 days) was 1.3 fold and the IC50 (HeLa cells [2]; Homo sapiens, HeLa cells (FIG. 10), AS-7 by itself, read-out: IC50 for growth inhibition) was roughly 7 µM. For the same compound, the “increase of doubling time” value (ovarian A2780 cells) was 1.6 fold, the “solubility in aqueous solutions” value [3] was “limited solubility in aqueous solutions” and the “increase in potency of the cytotoxic action of carfilzomib by AS-7” value (HeLa cells [4]) was “approximately 3.5 fold”.
